Laboratory results published in ChEMBL document CHEMBL4602719, “Discovery of Potent, Selective, and Orally Bioavailable Inhibitors of USP7 with In Vivo Antitumor Activity” (J Med Chem, 2020).

How the values were obtained:
[1] = molecular target: T1, Ubiquitin carboxyl-terminal hydrolase 7 (Homo sapiens, UniProt Q93009); assay: Inhibition of recombinant full length USP7 (unknown origin) using ubiquintin-rhodamine as substrate preincubated for 30 mins followed by substrate addition measured after 1 hr by fluorescence-based Envision plate reader assay
T1 sequence (Q93009 whole entry): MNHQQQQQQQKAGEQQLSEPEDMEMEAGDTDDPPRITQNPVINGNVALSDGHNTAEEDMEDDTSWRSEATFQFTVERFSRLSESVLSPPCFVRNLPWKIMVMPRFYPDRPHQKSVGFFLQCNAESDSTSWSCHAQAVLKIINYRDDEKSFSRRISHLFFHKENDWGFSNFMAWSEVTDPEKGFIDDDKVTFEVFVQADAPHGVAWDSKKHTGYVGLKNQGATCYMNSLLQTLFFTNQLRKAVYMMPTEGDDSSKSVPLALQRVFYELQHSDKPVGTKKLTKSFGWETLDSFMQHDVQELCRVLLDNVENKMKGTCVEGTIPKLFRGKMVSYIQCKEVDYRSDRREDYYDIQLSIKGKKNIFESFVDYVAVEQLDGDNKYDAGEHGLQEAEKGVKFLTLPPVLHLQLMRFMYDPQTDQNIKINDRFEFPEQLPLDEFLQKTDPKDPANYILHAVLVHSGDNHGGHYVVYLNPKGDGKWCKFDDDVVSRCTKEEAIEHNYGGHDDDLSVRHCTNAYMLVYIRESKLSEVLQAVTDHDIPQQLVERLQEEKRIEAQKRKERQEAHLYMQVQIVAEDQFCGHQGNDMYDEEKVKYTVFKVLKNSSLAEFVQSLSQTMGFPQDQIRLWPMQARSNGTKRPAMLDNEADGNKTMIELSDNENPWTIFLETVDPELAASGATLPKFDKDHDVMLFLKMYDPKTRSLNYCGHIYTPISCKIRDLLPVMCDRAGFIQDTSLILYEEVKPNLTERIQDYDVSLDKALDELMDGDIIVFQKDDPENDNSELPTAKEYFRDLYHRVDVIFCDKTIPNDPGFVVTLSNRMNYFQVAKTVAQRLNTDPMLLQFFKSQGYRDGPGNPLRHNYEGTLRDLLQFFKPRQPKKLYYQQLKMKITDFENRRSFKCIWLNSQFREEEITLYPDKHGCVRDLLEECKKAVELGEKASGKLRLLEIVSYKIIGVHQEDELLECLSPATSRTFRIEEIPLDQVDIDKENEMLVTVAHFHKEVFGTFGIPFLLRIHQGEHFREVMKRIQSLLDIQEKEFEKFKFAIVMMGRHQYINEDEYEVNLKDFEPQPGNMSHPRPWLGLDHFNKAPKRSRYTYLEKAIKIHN

[2] = molecular target: T2, Ubiquitin carboxyl-terminal hydrolase 1 (Homo sapiens, UniProt O94782); assay: Inhibition of His6-tagged human USP1 expressed in insect Sf21 cells coexpressing untagged UAF1 assessed as cleavage of Ubiquitin-Rhodamine110-glycine to Ubiquitin and Rhodamine110-glycine using Ubiquitin-Rhodamine110-glycine as substrate by fluorescence based analysis
T2 sequence (O94782 whole entry): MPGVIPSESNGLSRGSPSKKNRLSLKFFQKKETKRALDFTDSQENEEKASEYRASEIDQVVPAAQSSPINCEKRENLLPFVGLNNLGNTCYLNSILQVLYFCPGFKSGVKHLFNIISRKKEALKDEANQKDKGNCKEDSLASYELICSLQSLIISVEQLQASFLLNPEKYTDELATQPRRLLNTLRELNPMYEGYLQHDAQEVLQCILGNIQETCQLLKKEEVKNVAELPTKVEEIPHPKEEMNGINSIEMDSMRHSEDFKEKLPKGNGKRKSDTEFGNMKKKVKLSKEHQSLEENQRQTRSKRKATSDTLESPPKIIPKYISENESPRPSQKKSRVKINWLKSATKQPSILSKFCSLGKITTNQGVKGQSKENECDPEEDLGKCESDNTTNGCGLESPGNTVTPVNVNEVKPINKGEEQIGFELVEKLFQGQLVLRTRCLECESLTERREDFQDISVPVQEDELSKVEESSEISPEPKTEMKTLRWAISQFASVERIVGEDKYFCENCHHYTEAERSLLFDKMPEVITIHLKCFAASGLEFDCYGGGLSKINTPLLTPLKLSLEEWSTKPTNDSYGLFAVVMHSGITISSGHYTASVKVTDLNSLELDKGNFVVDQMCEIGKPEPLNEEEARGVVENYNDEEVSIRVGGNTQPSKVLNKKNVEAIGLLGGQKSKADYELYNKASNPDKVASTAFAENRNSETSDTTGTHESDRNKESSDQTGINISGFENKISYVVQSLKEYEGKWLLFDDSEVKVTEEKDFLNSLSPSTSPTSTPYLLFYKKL

[3] = molecular target: T3, Ubiquitin carboxyl-terminal hydrolase 47 (Homo sapiens, UniProt Q96K76); assay: Inhibition of USP47 (unknown origin) by biochemical assay
T3 sequence (Q96K76 whole entry): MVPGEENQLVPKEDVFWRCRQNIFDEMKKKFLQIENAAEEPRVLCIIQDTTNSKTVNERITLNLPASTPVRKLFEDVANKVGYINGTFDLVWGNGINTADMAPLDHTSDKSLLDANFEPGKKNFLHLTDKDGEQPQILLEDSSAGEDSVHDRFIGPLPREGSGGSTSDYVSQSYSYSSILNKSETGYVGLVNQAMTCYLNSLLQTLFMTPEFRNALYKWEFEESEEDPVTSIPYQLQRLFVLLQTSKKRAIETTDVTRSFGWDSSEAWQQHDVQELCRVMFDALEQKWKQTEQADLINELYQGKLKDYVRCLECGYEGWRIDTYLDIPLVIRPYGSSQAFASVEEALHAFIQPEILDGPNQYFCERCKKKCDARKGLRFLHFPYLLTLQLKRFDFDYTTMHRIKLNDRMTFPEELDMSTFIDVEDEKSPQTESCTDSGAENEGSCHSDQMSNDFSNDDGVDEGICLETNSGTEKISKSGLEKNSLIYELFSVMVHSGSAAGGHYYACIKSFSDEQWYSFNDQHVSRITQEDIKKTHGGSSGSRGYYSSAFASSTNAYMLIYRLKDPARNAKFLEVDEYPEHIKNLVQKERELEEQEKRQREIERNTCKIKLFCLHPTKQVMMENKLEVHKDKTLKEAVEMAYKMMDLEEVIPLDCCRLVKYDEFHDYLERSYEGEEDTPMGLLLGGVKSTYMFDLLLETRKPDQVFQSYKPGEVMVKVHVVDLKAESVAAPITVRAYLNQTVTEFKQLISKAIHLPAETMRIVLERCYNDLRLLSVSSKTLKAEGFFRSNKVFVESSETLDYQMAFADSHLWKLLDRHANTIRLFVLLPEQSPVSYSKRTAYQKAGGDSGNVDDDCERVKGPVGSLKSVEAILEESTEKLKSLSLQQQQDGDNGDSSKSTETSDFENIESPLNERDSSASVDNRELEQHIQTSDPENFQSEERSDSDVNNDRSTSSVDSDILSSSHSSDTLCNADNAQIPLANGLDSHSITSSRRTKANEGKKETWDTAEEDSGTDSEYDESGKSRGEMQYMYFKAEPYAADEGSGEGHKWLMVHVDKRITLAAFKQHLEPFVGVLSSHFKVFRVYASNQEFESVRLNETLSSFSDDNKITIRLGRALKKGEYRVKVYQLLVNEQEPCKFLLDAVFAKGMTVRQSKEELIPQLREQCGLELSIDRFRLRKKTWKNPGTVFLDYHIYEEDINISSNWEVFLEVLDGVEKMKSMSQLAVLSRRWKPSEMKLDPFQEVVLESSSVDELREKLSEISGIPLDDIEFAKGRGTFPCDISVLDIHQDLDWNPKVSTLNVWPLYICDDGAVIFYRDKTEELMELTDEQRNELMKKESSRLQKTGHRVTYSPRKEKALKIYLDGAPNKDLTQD

[4] = molecular target: T1, Ubiquitin carboxyl-terminal hydrolase 7; assay: Inhibition of USP7 in human RKO cells transfected with p53 luciferase reporter vector assessed as increase in p53-dependent luciferase activity measured after 18 hrs by BrightGlo luciferase assay; format: cell-based
[5] = Clearance in Sprague-Dawley rat at 0.5 mg/kg, iv; format: ADME, organism-based; conditions: in vivo
[6] = AUC in Sprague-Dawley rat at 2 mg/kg, po; format: ADME, organism-based; conditions: in vivo
[7] = Stability of compound in rat hepatocytes assessed as parent compound remaining incubated for 60 mins; format: ADME, cell-based, Hepatocyte; conditions: read-out: Stability
[8] = Stability of compound in human hepatocytes assessed as parent compound remaining incubated for 60 mins; format: ADME, cell-based, Hepatocyte; conditions: read-out: Stability
MM1.S = assay: Cytotoxicity against human MM1S cells expressing wild type p53 assessed as reduction in cell viability measured after 5 days by CellTiter-Glo assay; format: functional; conditions: 120 h

SMILES | IC50 [1] [nM] | IC50 [3] [nM] | EC50 [4] [nM] | other results
Cc1cc2nccc(-c3cc(Cl)cc4c3O[C@@H](C(=O)N3CCNCC3)C4)c2s1 | 130 | > 80000 |  | IC50 [2]: > 80000 nM
O=C(C1Cc2cc(Cl)cc(-c3ccnc4[nH]ccc34)c2O1)N1CCNCC1 (racemic) | 930 | > 80000 |  | IC50 [2]: > 80000 nM
Cc1cc(Cl)cc(-c2ccnc3cc(CN4C(=O)C5C(C4=O)C5(C)C)sc23)c1NC1CCCNC1 (centres undefined) | 0.78 |  | 33 | 
Cc1cc(Cl)cc(-c2ccnc3cc(CN4C(=O)C5C(C4=O)C5(C)C)sc23)c1OC1CCCNC1 (centres undefined) | 2.4 |  | 250 | 
Cc1cc(Cl)cc(-c2ccnc3cc(CN4C(=O)CCC4=O)sc23)c1O[C@@H]1CNC[C@@H]1F | 1.2 |  | 560 | clearance [5]: 35 mL/min/kg; AUC [6]: 130 ng·h/mL
O=C1CCC(=O)N1Cc1cc2nccc(-c3cc(Cl)cc4c3O[C@@H](c3ocnc3CN3CCC3)C4)c2s1 | 13 |  |  | remaining at 1 h [7]: 2%; remaining at 1 h [8]: 14%
Cc1cc(Cl)cc(-c2ccnc3cc(CN4C(=O)CCC4=O)sc23)c1O[C@@H]1CCNC[C@@H]1C | 2.1 |  | 150 | clearance [5]: 1.17 mL/min/kg; AUC [6]: 860 ng·h/mL
O=C([C@H]1Cc2cc(Cl)cc(-c3ccnc4cc(Cn5cnccc5=O)sc34)c2O1)N1CCNCC1 | 27 | > 5000 |  | 
O=C1CCCN1Cc1cc2nccc(-c3cc(Cl)cc4c3O[C@@H](C(=O)N3CCNCC3)C4)c2s1 | 26 | > 20000 |  | 
Cc1cc(Cl)cc(-c2ccnc3cc(CN4C(=O)CCC4=O)sc23)c1CN1CCNCC1 | 32 |  | 1200 | 
Cc1cc(Cl)cc(-c2ccnc3cc(CN4C(=O)C5CC5C4=O)sc23)c1C[C@@H]1CNC[C@@H](C)O1 (mixture of isomers) | 0.39 |  | 60 | CC50 (MM1.S): 120 nM
Cc1cc(Cl)cc(-c2ccnc3cc(CN4C(=O)C5C(C4=O)C5(C)C)sc23)c1CC1CCCNC1 (centres undefined) | 1.3 |  | 130 | 
O=C([C@H]1Cc2cc(Cl)cc(-c3ccnc4[nH]ccc34)c2O1)N1CCNCC1 | 450 | > 80000 |  | IC50 [2]: > 80000 nM
Cc1cc(Cl)cc(-c2ccnc3cc(Cn4c(=O)ccn(CC(F)(F)F)c4=O)sc23)c1O[C@@H]1CCNC[C@@H]1C | 0.26 |  | 42 | clearance [5]: 16.7 mL/min/kg; AUC [6]: 52 ng·h/mL
Cc1cc(Cl)cc(-c2ccnc3cc(CN4C(=O)CCC4=O)sc23)c1OC1CCNCC1 | 8 |  | 400 | clearance [5]: 5.5 mL/min/kg; AUC [6]: 44 ng·h/mL
Cc1cc(Cl)cc(-c2ccnc3cc(CN4C(=O)C5CC5C4=O)sc23)c1C[C@H]1OCCN[C@@H]1C (mixture of isomers) | 1.5 |  | 210 | CC50 (MM1.S): 310 nM
Cc1cc(Cl)cc(-c2ccnc3cc(CN4C(=O)CCC4=O)sc23)c1O[C@H]1C[C@H](N)C1 | 3.4 |  | 150 | 
O=C1CCC(=O)N1Cc1cc2nccc(-c3cc(Cl)cc4c3O[C@@H](c3onc5c3CNCC5)C4)c2s1 | 0.38 |  |  | remaining at 1 h [7]: 4%; remaining at 1 h [8]: 26%; clearance [5]: 96.7 mL/min/kg
Cc1cc(Cl)cc(-c2ccnc3cc(CN4C(=O)CCC4=O)sc23)c1CN1CCNC[C@@H]1C | 6.6 |  | 280 | 
Cc1cc(Cl)cc(-c2ccnc3cc(CN4C(=O)CCC4=O)sc23)c1O[C@H]1CCCNC1 | 4.6 |  | 180 | clearance [5]: 81.7 mL/min/kg; AUC [6]: 170 ng·h/mL
O=C([C@H]1Cc2cc(Cl)cc(-c3ccnc4cc(CO)sc34)c2O1)N1CCNCC1 | 43 | > 40000 |  | IC50 [2]: > 40000 nM
Cc1cc(Cl)cc(-c2ccnc3cc(CN4C(=O)CCC4=O)sc23)c1OCC1(F)CNC1 | 1.5 |  | 320 | 
CC(=O)NCc1cc2nccc(-c3cc(Cl)cc4c3O[C@@H](C(=O)N3CCNCC3)C4)c2s1 | 25 | > 80000 |  | 
O=C([C@H]1Cc2cc(Cl)cc(-c3ccnc4cc(CN5C(=O)CCC5=O)sc34)c2O1)N1CCNCC1 | 0.18 | > 2000 |  | remaining at 1 h [7]: 14%; remaining at 1 h [8]: 37%; clearance [5]: 192 mL/min/kg
Cc1cc(Cl)cc(-c2ccnc3cc(CN4C(=O)C5CC5C4=O)sc23)c1O[C@@H]1CCNC[C@@H]1C (some centres undefined) | 1.1 |  | 170 | 
O=C([C@H]1Cc2cc(Cl)cc(-c3ccnc4ccsc34)c2O1)N1CCNCC1 | 90 | > 40000 |  | IC50 [2]: > 40000 nM
O=C([C@H]1Cc2cc(Cl)cc(-c3ccnc4cc(C5(O)COC5)sc34)c2O1)N1CCNCC1 | 73 | > 40000 |  | 
Cn1nc2c(c1[C@H]1Cc3cc(Cl)cc(-c4ccnc5cc(CN6C(=O)CCC6=O)sc45)c3O1)CNCC2 | 1.1 |  |  | remaining at 1 h [7]: 42%; remaining at 1 h [8]: 63%; clearance [5]: 78.3 mL/min/kg
O=C([C@H]1Cc2cc(Cl)cc(-c3ccnc4cc(C(O)(CO)CCl)sc34)c2O1)N1CCNCC1 (some centres undefined) | 9 | > 40000 |  | 
O=C1CCC(=O)N1Cc1cc2nccc(-c3cc(Cl)ccc3O[C@@H]3CNC[C@@H]3F)c2s1 | 207 |  |  | 
